Columns and labels:
Format in all cases: physicochemical
[1] = Residual fluorescent intensity after artificial light exposure (ASTM G 154-06 Cycle 1)
Procedure: The obtained quinazolinone compound was irradiated with near-UV light in the wavelength of 365 nm, and the intensity of discharged fluorescence was measured. The fluorescent intensity was measured using a fluorescence spectrometer (DARSA-5000, PSI Co., Ltd.), under the condition of 365 nm stimulation wavelength, cumulative average of five-time measurements, and 1024×128 CCD sensor shape. In addition, measurement of residual fluorescent intensity after artificial light exposure was repeated identically according to ASTM G 154-06 Cycle 1 standard.

[2] = Solubility in organic solvents (eight product items); conditions: for Solubility, 2% Sodium Hydroxide (Caustic Soda) Solution: 2% Sodium Hydroxide solution; for solubility in organic solvents (in words): summary of TABLE 3
Procedure: (§1) Further, the melting point was measured using the melting point measuring instrument (M5000, KRÜSS GmbH), by assuming that the phase change is at the point where the change in transmissivity reaches 20%. Solubility in organic solvents was measured with respect to eight product items.

[3] = Chemical resistance and solvent resistance tests on printed material; conditions: summary of TABLE 4; printed material with 10% compound
Procedure: (§2) In addition, compositions respectively containing 10% compounds of embodiments 6 and 11 were sealed on a non-florescent paper, using a grinder and an offset plate printing press (HFT-225, HONGFAT machinery manufacturing Co., Ltd.). Chemical resistance tests and solvent resistance tests were performed on the printed material for 30 minutes at 23° C. with respect to each of nine product items. Furthermore, grades with reference to the standard and remaining fluorescence intensities were measured by irradiating the near-ultraviolet light of 365 nm wavelength, using a weatherability tester (QUV, Q-LAB Corporation), according to ASTM G154-06 Cycle No. 1 standard (except for the condensation conditions).

[4] = Weatherability test (QUV tester, ASTM G154-06 Cycle No. 1); conditions: in words
Procedure: as §2

[5] = Thermal stability (melting point measuring instrument); conditions: summary of TABLE 3
Procedure: as §1

| The remaining fluorescence intensity (after artificial light exposure) Coating (10%) [1] [%] | Structure (SMILES) | also measured |
| --- | --- | --- |
| 80 | O=c1[nH]c(-c2cc(Cl)ccc2O)nc2ccc(Cl)cc12 [Embodiment 5, 6-choloro-2-(5-chloro-2-hydroxyphenyl)quinazoline-4(3H)-on] | – |
| 70 | O=c1[nH]c(-c2cc(Cl)ccc2O)nc2cc(Cl)ccc12 [Embodiment 6, 7-chloro-2-(5-chloro-2-hydroxyphenyl)quinazoline-4(3H)-on] | Solubility, 2% Sodium Hydroxide (Caustic Soda) Solution [2]: Resolved; solubility in organic solvents (in words) [2]: low; solvent resistance (in words) [3]: high solvent resistance; light fastness grade and remaining fluorescence intensity compared with conventional commercial products [4]: higher light fastness grade and remaining fluorescence intensity than those of conventional commercial products; thermal stability (in words) [5]: high |
| 40 | O=c1[nH]c(-c2ccc(Cl)cc2O)nc2cc(Cl)ccc12 [Embodiment 12, 7-chloro-2-(4-chloro-2-hydroxyphenyl)quinazoline-4(3H)-on] | – |

Second part, the molecule before the results:

| Structure (SMILES) | The remaining fluorescence intensity (after artificial light exposure) Coating (10%) [1] [%] | also measured |
| --- | --- | --- |
| O=c1[nH]c(-c2cc(Cl)ccc2O)nc2ccccc12 [Embodiment 4, 2-(5-chloro-2-hydroxyphenyl)quinazoline-4(3H)-on] | 65 | – |
| COc1ccc(-c2nc3ccccc3c(=O)[nH]2)c(O)c1 [Embodiment 7, 2-(2-hydroxy-4-methoxyphenyl)quinazoline-4-(3H)-on] | 40 | – |
| COc1ccc(-c2nc3ccc(Cl)cc3c(=O)[nH]2)c(O)c1 [Embodiment 8, 6-chloro-2-(2-hydroxy-4-methoxyphenyl)quinazoline-4(3H)-on] | 45 | – |
| O=c1[nH]c(-c2ccc(Cl)cc2O)nc2ccccc12 [Embodiment 10, 2-(4-chloro-2-hydroxyphenyl)quinazoline-4(3H)-on] | 60 | – |
| O=c1[nH]c(-c2ccc(Cl)cc2O)nc2ccc(Cl)cc12 [Embodiment 11, 6-chloro-2-(4-chloro-2-hydroxyphenyl)quinazoline-4(3H)-on] | 70 | Solubility, 2% Sodium Hydroxide (Caustic Soda) Solution [2]: Resolved; solubility in organic solvents (in words) [2]: low; solvent resistance (in words) [3]: high solvent resistance; light fastness grade and remaining fluorescence intensity compared with conventional commercial products [4]: higher light fastness grade and remaining fluorescence intensity than those of conventional commercial products; thermal stability (in words) [5]: high |
| O=c1[nH]c(-c2cc(F)ccc2O)nc2ccccc12 [Embodiment 13, 2-(5-fluoro-2-hyroxyphenyl)quinazoline-4(3H)-on] | 65 | – |
| O=c1[nH]c(-c2c(O)cccc2Cl)nc2ccccc12 [Embodiment 16, 2-(2-chloro-6-hyrdoxyphenyl)quinazoline-4(3H)-on] | 60 | – |
| O=c1[nH]c(-c2cccc(Cl)c2O)nc2ccccc12 [Embodiment 17, 2-(3-choloro-2-hydroxyphenyl)quinazoline-4(3H)-on] | 60 | – |

From patent publication US10050214B2, “Near-ultraviolet stimulated light-emitting compound and production method for same” (NANO CMS CO., LTD., priority 2014, dated 2018)
